Test results from patent US20050164196A1, “Methods to predict patient responsiveness to tyrosine kinase inhibitors” (priority 2002, published 2005).
Values joined by “and” are separate entries in the source; they are usually repeats but may differ in a detail not shown here. Equal entries are not always repeated. Structures can show the parent of a compound that is named as a salt. Where two headings read alike, the source gives them in different places.

Assays:
CML = settings: cited from earlier work
[1] = rs2290573 CC genotype, n = 26, 18-month data, ITT principle
[2] = rs2290573 CT, TT genotype, n = 79, 18-month data, ITT principle
[3] = of 54 CML patients treated with 300 mg or more

## Cc1ccc(NC(=O)c2ccc(CN3CCN(C)CC3)cc2)cc1Nc1nccc(-c2cccnc2)n1 [Imatinib, Imatinib mesylate]
Ph+ CML; genotyped patients of the Imatinib arm, 18-month data, ITT principle
  events of progression: 10 events
Ph+ CML; individual patients with disease progression among the 105 analyzed patients, 18-month data, one line per patient, listed as STI571
  TTP (months): 16.1 months and 16.3 months and 11.8 months and 17.0 months and 13.4 months and 16.4 months and 9.7 months and 15.8 months and 5.6 months and 6.8 months
Ph+ CML; out of the entire 553 treated patients, 12-month data
  individuals who exhibited disease progression: 24 individuals
Ph+ CML; rs2290573 CC genotype, 26 patients, 18-month data
  patients who experienced progression events: 23.1%
Ph+ CML; [1]
  Death (as primary reason for discontinuation): 0 (0) n (%)
  Increase in WBC (approved by SMC): 1 (3.8) n (%)
  Loss of CHR: 1 (3.8) n (%)
  Loss of MCyR: 4 (15.4) n (%)
  Progression to AP or BC: 0 (0) n (%)
  Total number of patients with events (progression): 6 (23.1) n (%)
Ph+ CML; rs2290573 CT or TT genotype, 79 patients, 18-month data
  patients who experienced progression events: 5.1%
Ph+ CML; [2]
  Death (as primary reason for discontinuation): 0 (0) n (%)
  Increase in WBC (approved by SMC): 0 (0) n (%)
  Loss of CHR: 2 (2.5) n (%)
  Loss of MCyR: 0 (0) n (%)
  Progression to AP or BC: 2 (2.5) n (%)
  Total number of patients with events (progression): 4 (5.1) n (%)
CML; % of the 54 patients who received 300 mg or more
  major responses (0-35% of cells in metaphase positive for the Ph′ chromosome): 31%
CML; [3]
  complete cytogenetic remission (CCR): 7 patients
  complete hematologic responses (CHR): 53 patients
  cytogenic responses: 29 patients
  major responses (0-35% of cells in metaphase positive for the Ph′ chromosome): 17 patients
